System: 966289-007-R4-J1-PDC complex spheroid viability
Assay: Anticancer human tumor 966289-007-R4-J1-PDC patient-derived pancreatic adenocarcinoma cell line growth inhibition [GQUAD]
Conditions: for IC50: curve of first compound; for viability, T/C: stronger effect = lower value
In short: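 Multi-cell-type spheroids of tumor cells with HUVEC and mesenchymal stem cells, treated with drug combinations. Concentrations descend in half-log steps from near clinical Cmax, or from 10 microM where Cmax is unknown; viability read-out.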

[1] = second compound 0.0316 µM, first compound 0.0316 µM
[2] = second compound 0.0316 µM, first compound 0.1 µM
[3] = second compound 0.0316 µM, first compound 0.316 µM
[4] = second compound 0.0316 µM, first compound 1 µM
[5] = second compound 0.0316 µM, first compound 3.16 µM
[6] = second compound 0.0316 µM, first compound 10 µM
[7] = second compound 0.1 µM, first compound 0.0316 µM
[8] = second compound 0.1 µM, first compound 0.1 µM
[9] = second compound 0.1 µM, first compound 0.316 µM
[10] = second compound 0.1 µM, first compound 1 µM
[11] = second compound 0.1 µM, first compound 3.16 µM
[12] = second compound 0.1 µM, first compound 10 µM
[13] = second compound 0.316 µM, first compound 0.0316 µM
[14] = second compound 0.316 µM, first compound 0.1 µM
[15] = second compound 0.316 µM, first compound 0.316 µM
[16] = second compound 0.316 µM, first compound 1 µM
[17] = second compound 0.316 µM, first compound 3.16 µM
[18] = second compound 0.316 µM, first compound 10 µM
[19] = second compound 1 µM, first compound 0.0316 µM
[20] = second compound 1 µM, first compound 0.1 µM
[21] = second compound 1 µM, first compound 0.316 µM
[22] = second compound 1 µM, first compound 1 µM
[23] = second compound 1 µM, first compound 3.16 µM
[24] = second compound 1 µM, first compound 10 µM
[25] = second compound 3.16 µM, first compound 0.0316 µM
[26] = second compound 3.16 µM, first compound 0.1 µM
[27] = second compound 3.16 µM, first compound 0.316 µM
[28] = second compound 3.16 µM, first compound 1 µM
[29] = second compound 3.16 µM, first compound 3.16 µM
[30] = second compound 3.16 µM, first compound 10 µM
[31] = second compound 10 µM, first compound 0.0316 µM
[32] = second compound 10 µM, first compound 0.1 µM
[33] = second compound 10 µM, first compound 0.316 µM
[34] = second compound 10 µM, first compound 1 µM
[35] = second compound 10 µM, first compound 3.16 µM
[36] = second compound 10 µM, first compound 10 µM
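Also: spheroids exposed to the agents for seven days before readout.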
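For viability, T/C in this document: percent viability relative to DMSO vehicle control wells taken as 100%.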

Nc1ccn(C2OC(CO)C(O)C2(F)F)c(=O)n1 (stereo unspecified) + CN(C)c1ccc(Nc2c3ccc(NC(=O)CCN4CCCC4)cc3nc3cc(NC(=O)CCN4CCCC4)ccc23)cc1
IC50 (second compound 0.0316 µM): < 0.0316 µM
IC50 (second compound 0.1 µM): < 0.0316 µM
IC50 (second compound 0.316 µM): < 0.0316 µM
IC50 (second compound 1 µM): < 0.0316 µM
IC50 (second compound 3.16 µM): < 0.0316 µM
IC50 (second compound 10 µM): < 0.0316 µM
viability, T/C [1]: 14%
viability, T/C [2]: 1.18%
viability, T/C [3]: 0.88%
viability, T/C [4]: 0.96%
viability, T/C [5]: 0.85%
viability, T/C [6]: 0.89%
viability, T/C [7]: 10.8%
viability, T/C [8]: 2.18%
viability, T/C [9]: 0.86%
viability, T/C [10]: 1.06%
viability, T/C [11]: 0.89%
viability, T/C [12]: 1.03%
viability, T/C [13]: 8.99%
viability, T/C [14]: 1.42%
viability, T/C [15]: 0.99%
viability, T/C [16]: 0.97%
viability, T/C [17]: 0.84%
viability, T/C [18]: 0.93%
viability, T/C [19]: 9.78%
viability, T/C [20]: 1.73%
viability, T/C [21]: 1.22%
viability, T/C [22]: 1.01%
viability, T/C [23]: 0.89%
viability, T/C [24]: 0.91%
viability, T/C [25]: 8.33%
viability, T/C [26]: 1.17%
viability, T/C [27]: 1.01%
viability, T/C [28]: 0.9%
viability, T/C [29]: 1.5%
viability, T/C [30]: 0.99%
viability, T/C [31]: 5.04%
viability, T/C [32]: 1.02%
viability, T/C [33]: 1.04%
viability, T/C [34]: 0.83%
viability, T/C [35]: 0.85%
viability, T/C [36]: 0.85%

O=C(NO)c1cnc(N2CCN(S(=O)(=O)c3ccc4ccccc4c3)CC2)nc1 + CN(C)c1ccc(Nc2c3ccc(NC(=O)CCN4CCCC4)cc3nc3cc(NC(=O)CCN4CCCC4)ccc23)cc1
IC50 (second compound 0.0316 µM): 0.363 µM
IC50 (second compound 0.1 µM): 0.431 µM
IC50 (second compound 0.316 µM): 0.343 µM
IC50 (second compound 1 µM): 0.264 µM
IC50 (second compound 3.16 µM): 0.279 µM
IC50 (second compound 10 µM): 0.191 µM
viability, T/C [1]: 112%
viability, T/C [2]: 107%
viability, T/C [3]: 55.2%
viability, T/C [4]: 9.1%
viability, T/C [5]: 1.51%
viability, T/C [6]: 0.76%
viability, T/C [7]: 105%
viability, T/C [8]: 106%
viability, T/C [9]: 64.2%
viability, T/C [10]: 10.4%
viability, T/C [11]: 1.4%
viability, T/C [12]: 0.24%
viability, T/C [13]: 106%
viability, T/C [14]: 108%
viability, T/C [15]: 52.9%
viability, T/C [16]: 7.46%
viability, T/C [17]: 1.19%
viability, T/C [18]: 0.23%
viability, T/C [19]: 100%
viability, T/C [20]: 108%
viability, T/C [21]: 39.9%
viability, T/C [22]: 8.91%
viability, T/C [23]: 1.33%
viability, T/C [24]: 0.27%
viability, T/C [25]: 97.1%
viability, T/C [26]: 107%
viability, T/C [27]: 43.6%
viability, T/C [28]: 5.36%
viability, T/C [29]: 0.77%
viability, T/C [30]: 0.21%
viability, T/C [31]: 101%
viability, T/C [32]: 106%
viability, T/C [33]: 7.93%
viability, T/C [34]: 1.01%
viability, T/C [35]: 0.44%
viability, T/C [36]: 0.14%

O=c1[nH]cc(F)c(=O)[nH]1 + CN(C)c1ccc(Nc2c3ccc(NC(=O)CCN4CCCC4)cc3nc3cc(NC(=O)CCN4CCCC4)ccc23)cc1
IC50 (second compound 0.0316 µM): 0.205 µM
IC50 (second compound 0.1 µM): 0.209 µM
IC50 (second compound 0.316 µM): 0.208 µM
IC50 (second compound 1 µM): 0.206 µM
IC50 (second compound 3.16 µM): 0.213 µM
IC50 (second compound 10 µM): 0.195 µM
viability, T/C [1]: 104%
viability, T/C [2]: 103%
viability, T/C [3]: 18.4%
viability, T/C [4]: 6.28%
viability, T/C [5]: 5.63%
viability, T/C [6]: 6.35%
viability, T/C [7]: 103%
viability, T/C [8]: 113%
viability, T/C [9]: 17.7%
viability, T/C [10]: 7.05%
viability, T/C [11]: 5.04%
viability, T/C [12]: 6.55%
viability, T/C [13]: 105%
viability, T/C [14]: 109%
viability, T/C [15]: 17.5%
viability, T/C [16]: 7.23%
viability, T/C [17]: 5.77%
viability, T/C [18]: 6.78%
viability, T/C [19]: 103%
viability, T/C [20]: 107%
viability, T/C [21]: 17.5%
viability, T/C [22]: 6.91%
viability, T/C [23]: 5.6%
viability, T/C [24]: 5.8%
viability, T/C [25]: 101%
viability, T/C [26]: 106%
viability, T/C [27]: 22.2%
viability, T/C [28]: 8.51%
viability, T/C [29]: 5.41%
viability, T/C [30]: 5.54%
viability, T/C [31]: 93.8%
viability, T/C [32]: 103%
viability, T/C [33]: 14.6%
viability, T/C [34]: 4.55%
viability, T/C [35]: 3.52%
viability, T/C [36]: 3.2%
